pIC50: −log10 of the molar value.

In patent US11267800B2, “Cyclohexyl acid triazole azines as LPA antagonists” (BRISTOL-MYERS SQUIBB COMPANY, priority 2017, dated 2022) one finds IC50 data, which are given here for 56 compounds.

The assay deals with T1, human LPA1 (Homo sapiens, UniProt Q92633).
T1 construct: expressed in transfected cells; host or cells: Chinese hamster ovary (CHO) cells
Nature of the assay: LPA1 functional antagonist assay (calcium flux). It counts as cell-based. The settings on record: CHO cells overexpressing human LPA1; inhibition of calcium flux induced by 10 nM LPA; read-out: hLPA1 IC50. The protocol:
The effectiveness of compounds of the present invention as LPA1 inhibitors can be determined in an LPA1 functional antagonist assay as follows:
Chinese hamster ovary cells overexpressing human LPA1 were plated overnight (15,000 cells/well) in poly-D-lysine coated 384-well microplates (Greiner bio-one, Cat #781946) in DMEM/F12 medium (Gibco, Cat #11039). Following overnight culture, cells were loaded with calcium indicator dye (AAT Bioquest Inc, Cat #34601) for 30 minutes at 37° C. The cells were then equilibrated to room temperature for 30 minutes before the assay. Test compounds solubilized in DMSO were transferred to 384 well non-binding surface plates (Corning, Cat #3575) using the Labcyte Echo acoustic dispense and diluted with assay buffer [1×HBSS with calcium/magnesium (Gibco Cat #14025-092), 20 mM HEPES (Gibco Cat #15630-080) and 0.1% fatty acid free BSA (Sigma Cat #A9205)] to a final concentration of 0.5% DMSO. Diluted compounds were added to the cells by FDSS6000 (Hamamatsu) at final concentrations ranging from 0.08 nM to 5 μM. and were then incubated for 20 min at room temperature at which time LPA (Avanti Polar Lipids Cat #857130C) was added at final concentrations of 10 nM to stimulate the cells. The compound IC50 value was defined as the concentration of test compound which inhibited 50% of the calcium flux induced by LPA alone. IC50 values were determined by fitting data to a 4-parameter logistic equation (GraphPad Prism, San Diego Calif.).
(In general: Calcium flux is commonly read through the fluorescence of an indicator in the cells.)

T1 sequence (Q92633 whole entry): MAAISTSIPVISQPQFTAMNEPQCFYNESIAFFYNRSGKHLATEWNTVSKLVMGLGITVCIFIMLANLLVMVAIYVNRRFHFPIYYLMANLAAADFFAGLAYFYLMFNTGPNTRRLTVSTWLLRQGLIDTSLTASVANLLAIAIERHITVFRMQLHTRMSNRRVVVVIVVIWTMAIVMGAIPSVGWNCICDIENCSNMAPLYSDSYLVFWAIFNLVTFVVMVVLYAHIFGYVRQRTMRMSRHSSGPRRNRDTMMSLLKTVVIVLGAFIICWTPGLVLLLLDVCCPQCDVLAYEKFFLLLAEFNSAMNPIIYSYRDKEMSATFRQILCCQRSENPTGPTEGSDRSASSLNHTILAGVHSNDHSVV

For the compound `CCCN(C)c1nc(NCc2c(-c3ccc(O[C@H]4CCC[C@H](C(=O)O)C4)c(C)n3)nnn2C)ncc1F` [Example 44], the pIC50 is 7.36.
For `Cc1nc(-c2nnn(C)c2CNc2ncc(F)c(NC3CC3)n2)ccc1O[C@H]1CCC[C@H](C(=O)O)C1` [Example 45] the value was 6.96; for `CCCN(C)c1ccnc(NCc2c(-c3ccc(O[C@H]4CCC[C@H](C(=O)O)C4)c(C)n3)nnn2C)n1` [Example 46], 6.52; for `Cc1nc(-c2nnn(C)c2CNc2ncc(F)c(NCC3CC3)n2)ccc1O[C@H]1CCC[C@H](C(=O)O)C1` [Example 47], 7.16.
Under `Cc1nc(-c2nnn(C)c2CNc2ncnc(NCCC3CC3)n2)ccc1O[C@H]1CCC[C@H](C(=O)O)C1` [Example 48] stands 6.66; under `CCCCNc1nc(NCc2c(-c3ccc(O[C@H]4CCC[C@H](C(=O)O)C4)c(C)n3)nnn2C)ncc1F` [Example 49], 7.16.
With `Cc1nc(-c2nnn(C)c2CNc2nccc(NCCC3CC3)n2)ccc1O[C@H]1CCC[C@H](C(=O)O)C1` [Example 50], the pIC50 is 6.61.
For `CCCNc1ccnc(NCc2c(-c3ccc(O[C@H]4CCC[C@H](C(=O)O)C4)c(C)n3)nnn2C)n1` [Example 51] the value was 6.63.
As to `Cc1nc(-c2nnn(C)c2CNc2ncc(F)c(NCCC(C)C)n2)ccc1O[C@H]1CCC[C@H](C(=O)O)C1` [Example 52], the pIC50 was 7.20.
In the case of `Cc1nc(-c2nnn(C)c2CNc2ncc(F)c(NC3CCC3)n2)ccc1O[C@H]1CCC[C@H](C(=O)O)C1` [Example 53], the pIC50 was 7.24.
For `Cc1nc(-c2nnn(C)c2CNc2ncc(F)c(Nc3ccccc3)n2)ccc1O[C@H]1CCC[C@H](C(=O)O)C1` [Example 54] the value was 6.87; for `Cc1nc(-c2nnn(C)c2CNc2ccnc(OCC(C)(C)F)n2)ccc1O[C@H]1CCC[C@H](C(=O)O)C1` [Example 55], 6.72.
For `Cc1nc(-c2nnn(C)c2CNc2nccc(OCC(C)(C)F)n2)ccc1O[C@H]1CCC[C@H](C(=O)O)C1` [Example 56] the value was 7.28.
Take `Cc1nc(-c2nnn(C)c2CNc2ncc(F)c(NCCC3CC3)n2)ccc1O[C@H]1CCC[C@H](C(=O)O)C1` [Example 57]: the pIC50 was 7.68.
For `CCNc1nc(NCc2c(-c3ccc(O[C@H]4CCC[C@H](C(=O)O)C4)c(C)n3)nnn2C)ncc1F` [Example 58] the value was 7.09; for `Cc1nc(-c2nnn(C)c2CNc2ncc(F)c(NC(C)C)n2)ccc1O[C@H]1CCC[C@H](C(=O)O)C1` [Example 59], 7.23; for `Cc1nc(-c2nnn(C)c2CNc2ncc(F)c(NCC(C)C)n2)ccc1O[C@H]1CCC[C@H](C(=O)O)C1` [Example 60], 7.47.
For `Cc1nc(-c2nnn(C)c2CNc2ccnc(OCC(C)(C)C)n2)ccc1O[C@H]1CCC[C@H](C(=O)O)C1` [Example 61] the value was 6.63.
Turning to `Cc1nc(-c2nnn(C)c2CNc2nccc(NCCc3ccc(F)cc3)n2)ccc1O[C@H]1CCC[C@H](C(=O)O)C1` [Example 62], the pIC50 was 7.20.
For `Cc1nc(-c2nnn(C)c2CNc2nccc(NCCc3ccccc3)n2)ccc1O[C@H]1CCC[C@H](C(=O)O)C1` [Example 63] the value was 7.07.
Take `CCCNc1nc(NCc2c(-c3ccc(O[C@H]4CCC[C@H](C(=O)O)C4)c(C)n3)nnn2C)ncc1F` [Example 64]: the pIC50 is 7.34.
For `Cc1nc(-c2nnn(C)c2CNc2nccc(OCC(C)(C)C)n2)ccc1O[C@H]1CCC[C@H](C(=O)O)C1` [Example 65] the value was 7.44.
Under `Cc1nc(-c2nnn(C)c2CNc2nccc(C3CCCC3)n2)ccc1O[C@H]1CCC[C@H](C(=O)O)C1` [Example 66] stands 7.92; under `[2H]C([2H])([2H])C([2H])(Oc1ccnc(NCc2c(-c3ccc(O[C@H]4CCC[C@H](C(=O)O)C4)c(C)n3)nnn2C)n1)C([2H])([2H])[2H]` [Example 67], 7.39.
Under `CCOc1ccnc(NCc2c(-c3ccc(O[C@H]4CCC[C@H](C(=O)O)C4)c(C)n3)nnn2C)c1` [Example 68] stands 6.88; under `Cc1nc(-c2nnn(C)c2CNc2nccc(OCC(C)F)n2)ccc1O[C@H]1CCC[C@H](C(=O)O)C1` (some centres unmarked) [Example 69], 7.27.
As for `Cc1nc(-c2nnn(C)c2CNc2ncnc(N3CCCC3)n2)ccc1O[C@H]1CCC[C@H](C(=O)O)C1` [Example 70], the negative logarithm of the IC50 (pIC50) was 6.50.
In the case of `[2H]C([2H])([2H])C([2H])([2H])Oc1ccnc(NCc2c(-c3ccc(O[C@H]4CCC[C@H](C(=O)O)C4)c(C)n3)nnn2C)n1` [Example 71], the negative-log IC50 (pIC50) was 7.89.
Consider `Cc1nc(-c2nnn(C)c2CNc2cc(OC(F)(F)F)ccn2)ccc1O[C@H]1CCC[C@H](C(=O)O)C1` [Example 72], for which the pIC50 is 7.24.
Under `Cc1nc(-c2nnn(C)c2CNc2ccnc(OCC(F)F)n2)ccc1O[C@H]1CCC[C@H](C(=O)O)C1` [Example 73] stands 6.88.
For `Cc1nc(-c2nnn(C)c2CNc2nccc(OCC3(C)COC3)n2)ccc1O[C@H]1CCC[C@H](C(=O)O)C1` [Example 74] the value was 6.89; for `Cc1nc(-c2nnn(C)c2CNc2cc(OC(F)(F)F)ccn2)ccc1O[C@@H]1CCC[C@@H](C(=O)O)C1` [Example 75], 6.38.
For `Cc1nc(-c2nnn(C)c2CNc2ncc(F)c(NCCc3ccc(Cl)cc3)n2)ccc1O[C@H]1CCC[C@H](C(=O)O)C1` [Example 76], the pIC50 was 7.36.
For `Cc1nc(-c2nnn(C)c2CNc2ccnc(OCC(C)(F)F)n2)ccc1O[C@H]1CCC[C@H](C(=O)O)C1` [Example 77] the value was 7.19; for `Cc1nc(-c2nnn(C)c2CNc2nccc(OCC(C)(F)F)n2)ccc1O[C@H]1CCC[C@H](C(=O)O)C1` [Example 78], 7.47.
For `Cc1nc(-c2nnn(C)c2CNc2nccc(OCC(F)F)n2)ccc1O[C@H]1CCC[C@H](C(=O)O)C1` [Example 79] the value was 7.10; for `Cc1nc(-c2nnn(C)c2CNc2ncnc(Oc3ccccc3)n2)ccc1O[C@H]1CCC[C@H](C(=O)O)C1` [Example 80], 6.87.
For the compound `Cc1nc(-c2nnn(C)c2CNc2nccc(-c3cnccn3)n2)ccc1O[C@H]1CCC[C@H](C(=O)O)C1` [Example 81], the pIC50 was 7.04.
For `COCCOc1ccnc(NCc2c(-c3ccc(O[C@H]4CCC[C@H](C(=O)O)C4)c(C)n3)nnn2C)n1` [Example 82] the value was 6.91.
Under `Cc1nc(-c2nnn(C)c2CNc2nccc(OC3CCOC3)n2)ccc1O[C@H]1CCC[C@H](C(=O)O)C1` (some centres unmarked) [Example 83] stands 6.76.
For `Cc1nc(-c2nnn(C)c2CNc2nccc(Oc3ccc(Cl)nc3)n2)ccc1O[C@H]1CCC[C@H](C(=O)O)C1` [Example 84], the pIC50 was 6.42.
With `Cc1nc(-c2nnn(C)c2CNc2nccc(OC3CCCC3)n2)ccc1O[C@H]1CCC[C@H](C(=O)O)C1` [Example 85], the pIC50 was 6.96.
`Cc1nc(-c2nnn(C)c2CNc2nccc(Oc3cccnc3)n2)ccc1O[C@H]1CCC[C@H](C(=O)O)C1` [Example 86]: the pIC50 was 7.04.
For `COCCCCOc1ccnc(NCc2c(-c3ccc(O[C@H]4CCC[C@H](C(=O)O)C4)c(C)n3)nnn2C)n1` [Example 87] the value was 7.11; for `CCSc1ccnc(NCc2c(-c3ccc(O[C@H]4CCC[C@H](C(=O)O)C4)c(C)n3)nnn2C)n1` [Example 88], 7.80; for `COCCCOc1ccnc(NCc2c(-c3ccc(O[C@H]4CCC[C@H](C(=O)O)C4)c(C)n3)nnn2C)n1` [Example 89], 7.11.
In the case of `Cc1nc(-c2nnn(C)c2CNc2nccc(OCC(F)(F)F)n2)ccc1O[C@H]1CCC[C@H](C(=O)O)C1` [Example 90], the pIC50 was 7.27.
Regarding `Cc1nc(-c2nnn(C)c2CNc2nccc(OCC(F)(F)C(F)F)n2)ccc1O[C@H]1CCC[C@H](C(=O)O)C1` [Example 91], the pIC50 is 7.49.
For `Cc1nc(-c2nnn(C)c2CNc2ccnc(OCC(C)C)n2)ccc1O[C@H]1CCC[C@H](C(=O)O)C1` [Example 92] the value was 6.42.
As to `Cc1nc(-c2nnn(C)c2CNc2nccc(OCC(C)C)n2)ccc1O[C@H]1CCC[C@H](C(=O)O)C1` [Example 93], the negative-log IC50 (pIC50) is 7.64.
With `Cc1nc(-c2nnn(C)c2CNc2nccc(Oc3cccc(C#N)c3)n2)ccc1O[C@H]1CCC[C@H](C(=O)O)C1` [Example 94], the pIC50 was 6.62.
For `Cc1nc(-c2nnn(C)c2CNc2nc(-c3cccs3)nc(-c3cccs3)n2)ccc1O[C@H]1CCC[C@H](C(=O)O)C1` [Example 95] the value was 5.89.
For `Cc1nc(-c2nnn(C)c2CNc2nccc(OC3CCC3)n2)ccc1O[C@H]1CCC[C@H](C(=O)O)C1` [Example 96] the value was 7.80.
Turning to `CSc1ccnc(NCc2c(-c3ccc(O[C@H]4CCC[C@H](C(=O)O)C4)c(C)n3)nnn2C)n1` [Example 97], the pIC50 was 6.73.
For the compound `Cc1nc(-c2nnn(C)c2CNc2ccnc(OC(C)C(F)(F)F)n2)ccc1O[C@H]1CCC[C@H](C(=O)O)C1` (some centres unmarked) [Example 98], the pIC50 was 7.00.
Under `Cc1nc(-c2nnn(C)c2CNc2nccc(OC(C)C(F)(F)F)n2)ccc1O[C@H]1CCC[C@H](C(=O)O)C1` (some centres unmarked) [Example 99] stands 6.61.

In general, pIC50 refers to −log10 of the IC50, conventionally taken in molar units.
